Experimental data published in patent publication US8404690B2, “Piperazine-2-carboxamide derivatives” (Merck Serono SA, priority 2003, dated 2013).

How the values were obtained:
[1] = target: T1, human Prostaglandin F2α receptor (hFP) (Homo sapiens, UniProt P43088); assay: In vitro functional assay 1: inhibition of Prostaglandin F2α induced IP3 synthesis in HEK/EBNA cells; format: cell-based; conditions: tested on human Prostaglandin F2α; 30 nM PGF2α stimulation; read-out: EC50 value, antagonism of Prostaglandin F2α-induced IP3-synthesis
T1 construct: expressed in transfected cells; host or cells: 293-EBNA cells
Source text: 1) In Vitro Functional Assay 1: Inhibition of Prostaglandin F2α Induced IP3 (Inositol Triphosphate) Synthesis in HEK/EBNA-Cells Expressing the Prostaglandin F2α Receptor
The interaction of Prostaglandin F2α with its receptor leads to IP3 synthesis, a second messenger for Ca^2+ release from sarcoplasmatic reticulum, involved in the process triggering uterine contractions. The present assay described hereinafter can be used to show the inhibition of the Prostaglandin F2α/Prostaglandin F2α receptor mediated IP3 synthesis by test compounds of formula (I).
293-EBNA cells and pCEP4 vector were purchased from Invitrogen; Fetal Bovine Serum from Cansera; Hygromycin B from Roche Molecular Biochemicals; DMEM-F12 medium, L-Glutamine from Life Technologies Inc.; [^3H] Inositol from Perkin Elmer Life Sciences; Prostaglandin F2α (PGF2α) from Sigma, AG1-X8 chromatography columns from BioRad, 96 well black/white plates from Corning Inc. […]
In the course of the three above mentioned experiments, the reaction was stopped by addition of 1 ml of stop solution (2.4% perchloric acid) for 10 min. […] The IP3 to be quantified were eluted with 3 ml elution buffer (1M ammonium formate, 0.1 M formic acid) and radioactivity was counted on a Beckman LS6000TA scintillation counter to measure the amount of phosphorylated [^3H] inositol.

[2] = target: T2, human Prostaglandin F2α receptor (Homo sapiens, UniProt P43088); assay: In vitro competition binding assay with Scintillation Proximity Assay (SPA); parameters: Human Prostaglandin F2α receptor (full-length cDNA) was subcloned into the pCEP4 (Invitrogen) vector; expressed in transfected cells; host or cells: HEK 293 EBNA cells (membrane preparation); conditions: Prostaglandin F2α as radioligand, membranes of HEK 293 EBNA cells, read-out: Binding affinity for human Prostaglandin F2α receptor Ki
Source text: In vitro competition binding assay with Scintillating Proximity Assay (SPA) (see Pharmaceutical Manufacturing International, 1992, p. 49-53 by Cook, N. D. et al)
This assay allows to determine the binding affinity of the test compounds of formula (II) for the human Prostaglandin F2α receptor
Human Prostaglandin F2α receptor (full-length cDNA) was subcloned into the pCEP4 (Invitrogen) vector and transfected together with the hygromycin resistance gene into HEK 293 EBNA cells by Calcium-phosphate co-precipitation method. Antibiotic resistant cells were grown under constant selection pressure in DMEM/F-12 medium supplemented with 2% fetal calf serum, 4 mM L-Glutamine and 8 ml/l Insulin-Transferrin-Selenium-mix (all Invitrogen) and 300 μg/ml hygromycin at 37° C. in a humidified atmosphere of 5% CO2 in air. At 48 h before harvesting, receptor expression was enhanced by adding 5 mM of Na-butyrate. Cells were washed twice with phosphate buffer saline, harvested and pelleted by centrifugation.
Cell pellet was lysed by Dounce homogenisation in 250 mM sucrose, 25 mM Tris-HCl pH 7.5, 10 mM MgCl2, 1 mM EDTA containing proteases inhibitors according to the manufacturer (Boehringer Mannheim) at 4° C. The lysate was centrifuged at 1000 g, 4° C. for 10 min and the supernatant was centrifuged at 160000 g, 4° C. for 60 min. […]
In vitro competition binding with Scintillation proximity assay (SPA) was performed in Corning NBS 96 wells plates. Briefly, 100 μl of binding buffer containing 15 to 30 μg of purified membranes, 4 mg/ml of wheat-germ agglutinin (WGA) SPA beads and 1 to 2 nM of ^3H PGF2-alpha (determined by Scatchard analysis) in 1% DMSO was incubated for 2 hours at room temperature. Non-specific binding was determined in the presence of 1 μM of non-radioactive Prostaglandin F2α. […] The radioactivity was counted on a Microbeta plate counter and the binding data were analysed using the iterative, non-linear, curve-fitting program, “Prism” (GraphPad Software, Inc).

[3] = target: T2, human Prostaglandin F2α receptor; assay: In vitro functional assay 2: inhibition of Prostaglandin F2α induced Ca2+-mobilization in HEK EBNA cells (FLIPR); format: cell-based; parameters: expressed in transfected cells; host or cells: HEK EBNA cells; conditions: HEK EBNA cells expressing the human Prostaglandin F2α receptor
Protocol: 2) In Vitro Functional Assay 2: Inhibition of Prostaglandin F2α Induced Ca^2+-Mobilization in HEK/EBNA-Cell Expressing the Prostaglandin F2α Receptor, as Measured by FLIPR® (Fluorimetric Imaging Plate Reader).
HEK EBNA cells were seeded at 60000 cells/well in a Poly-L-Lysine precoated black/white bottom 96 well plate. 24 hours later cells were loaded with […] Fluo-4 in DMEM-F12 without fetal calf serum for 1-2 hours at 37° C. For Prostaglandin F2α dose response or agonist activity measurement of compounds—after a wash with FLIPR buffer (10 mM Hepes, 145 mM NaCl, 5 mM KCl, 1 mM MgCl2, 10 mM glucose, pH 7.4)—cells were stimulated with increasing concentration of Prostaglandin F2α or test compounds of formulae (I), (II) and (III).
Calcium mobilisation was then measured on the FLIPR for 4 min. For IC50 determination of the molecules, increasing concentrations of test compounds were added to the cells 30 min prior to the washing step. After the wash with FLIPR buffer, increasing concentrations of test compounds were added to the cells in FLIPR buffer and calcium mobilisation was measured for 1 min. Then the cells were stimulated with a concentration of 2 times the EC50 of Prostaglandin F2α and calcium mobilisation was measured for 4 min.

[4] = test system: Spontaneous uterine contractions in late-term pregnant rats; assay: In vivo assay: reduction of spontaneous uterine contractions in late-term pregnant rats; parameters: species or system rat; conditions: i.v. route (infusion over 10 minutes), dose of 3 mg/kg/min, anesthetised late-term pregnant Sprague Dawley rats, AUC of intra-luminal uterine pressure vs basal
Source text: 3) In Vivo Assay: Reduction of Uterine Contractile Activity in Rats
Spontaneous Uterine Contractions in Late-Term Pregnant Rats:
Late-term pregnant (19-21 days of gestation) Sprague Dawley female rats (Charles River, Calco, Italy) weighing 350-400 g were anesthetised with urethane (1.05 g/kg, i.p.) and placed on a homeothermic operating table. The trachea was isolated and cannulated with a suitable polyethylene (PE) tubing. A midline incision at the hypogastrium level was made, one pregnant uterine horn exposed and its tubal end closed (near the ovary) by a ligature with surgical silk. […]
The spontaneous contractile response of the uterus was quantified by evaluating the area under the curve (AUC) of the changes in the intra-luminal uterine pressure over time (by Chart V4.04 for Windows software, PowerLab AD Instruments, Castle Hill, Australia). The effect of the test compound on the spontaneous uterine contraction was evaluated as the percent variation of the AUC calculated in a 10-min interval following the administration of each dose of test compound as compared to the AUC in a 10-min interval before the administration of the first dose of test compound (basal value). When possible, a dose-response curve (of peak effect) was plotted and the relative ED50 value calculated (by S-Plus 2000 v. 4.6 statistical software, Mathsoft, Inc. Seattle, Wash., USA).

T2 sequence (P43088 whole entry): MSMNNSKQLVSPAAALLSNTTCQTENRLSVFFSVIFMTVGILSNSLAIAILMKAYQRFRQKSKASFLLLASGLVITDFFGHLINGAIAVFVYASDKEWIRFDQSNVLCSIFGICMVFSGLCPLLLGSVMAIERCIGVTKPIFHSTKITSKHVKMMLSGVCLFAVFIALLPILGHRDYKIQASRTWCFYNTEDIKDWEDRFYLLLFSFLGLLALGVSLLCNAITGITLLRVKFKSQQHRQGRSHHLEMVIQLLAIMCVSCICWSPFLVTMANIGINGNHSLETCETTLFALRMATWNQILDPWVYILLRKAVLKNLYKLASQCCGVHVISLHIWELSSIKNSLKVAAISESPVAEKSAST
T1 sequence (P43088 whole entry): as above

Q: With `C=CCNC(=O)[C@H]1CN(S(=O)(=O)c2ccc(C(C)(C)C)cc2)CCN1S(=O)(=O)c1cccc2cccnc12.Cl` as the compound, how does the melting point read?
A: The melting point was 126 to 129 °C.

Q: Which EC50 [1] does the source give for `C=CCNC(=O)[C@@H]1CN(S(=O)(=O)c2ccc(C(C)(C)C)cc2)CCN1S(=O)(=O)c1cccc2cccnc12` [Example 8, (2S)-4-[(4-tert-butylphenyl)sulfonyl]-N-Drop-2-enyl-1-(quinolin-8-ylsulfonyl)piperazine-2-carboxamide] here?
A: The EC50 was 24 nM.

Q: Which Ki [2] does the source give for `CN(CC(O)c1ccccc1)C(=O)[C@H]1CN(C(=O)Nc2ccc(Oc3ccccc3)cc2)CCN1S(=O)(=O)c1ccccc1` (stereo partly drawn) [Example 16, (3R)—N˜3˜-(2-hydroxy-2-phenylethyl)-N˜3˜-methyl-N˜1˜-(4-phenoxy-phenyl)-4-(phenylsulfonyl)piperazine-1,3-dicarboxamide] here?
A: Its Ki is 1150 nM.

Q: What about the IC50 [3] of the same compound?
A: The IC50 was 4750 nM.

Q: Which “inhibition of uterine contractions” value [4] does the source give for `C=CCNC(=O)c1cc(C(C)(C)C)ccc1S(=O)(=O)c1cccc2cccnc12` [[5-(tert-butyl)-2-(8-quinolylsulfonyl)phenyl]-N-prop-2-enylcarboxamide] here?
A: The value was 56.1%.

Q: With `C=CCNC(=O)[C@@H]1CN(S(=O)(=O)c2ccc(C(C)(C)C)cc2)CCN1S(=O)(=O)c1cccc2cccnc12` [drawing 66, (2S)-4-[(4-tert-butylphenyl)-sulfonyl]-N-prop-2-enyl-1-(quinolin-8-yl-sulfonyl)piperazine-2-carboxamide] as the compound, how does the Ki [2] read?
A: Its Ki is 125 nM.

Q: What does the source list for “(3S)-4-(3-chlorobenzoyl)-N˜1˜-(3,4-dichlorophenyl)-N˜3˜-[(1S)-2,3-dihydro-1H-inden-1-yl]piperazine-1,3-dicarboxamide [Example 21]”?
A: Ki [2]: 816 nM; IC50 [3]: 495 nM
